Experimental data from US20240067631A1, “PYRAZOLE DERIVATIVES USEFUL AS NAMPT MODULATORS” (Cytokinetics, Inc., priority 2020, published 2024).

Assays:
endogenous NAMPT = endogenous NAMPT (Homo sapiens (Human), UniProt P43490); experiment: Cellular NAD+ modulation assay in SH-SY5Y cells with doxorubicin; format: cell-based; settings: Neuroblastoma SH-SY5Y cells, 40 hours, cellular NAD levels; for EC50: read-out: SY5Y (human) NAD Cell Dox EC50
Procedure: The compounds described herein were also assayed for their ability to stimulate the endogenous NAMPT in a native cellular environment in the cellular NAD+ modulation assay, which measures the ability of the compound to modulate cellular NAD levels. Increased levels of NAD are expected by compounds that permeate the cells and activate the catalytic activity of the endogenous NAMPT.
Neuroblastoma SH-SY5Y cells were grown in 1:1 mixture of Eagle's Minimum Essential Medium and F12 Medium, along with 10% fetal bovine serum, in a humidified incubator with an atmosphere of 95% air and 5% CO2 at 37° C. The assays were initiated by plating 20 μL of SH-SY5Y cells in culture medium with 0.1% fetal bovine serum, at a density of 5000 cells per well to a 384-well Corning™ BioCoat™ Poly-D-Lysine Multiwell Plates. The plates were incubated in the 37° C. incubators for a period of 5 hours. Compounds in DMSO were added to the plates in a volume of 120 nL using the Labcyte Echo Liquid Handlers. 5 μL of a 1.5 uM Doxorubicin solution in assay medium is added to each well. The plates are then incubated for 40 hours. 30 μL of a readout-solution containing 0.2 U/mL Diaphorase enzyme, 40 uM resazurin, 10 uM FMN, 0.8 U/mL Alcohol dehydrogenase, 3% ethanol, 0.4 mg/mL bovine serum albumin, 0.2% Triton X-100 in 100 mM Tris-HCl, 30 mM EDTA, pH 8.4. The plates were read for fluorescence (Excitation/Emission=540 nm/590 nm) using an EnVision plate reader after 60 mins of incubation at ambient temperature.

human NAMPT = human NAMPT (Homo sapiens (Human), UniProt P43490); experiment: Human recombinant enzyme assay (NMN fluorescence biochemical assay); settings: 6 nM human NAMPT, 60 min; for AC1.4 Human: concentration of compound that generates 40% higher activity over basal; for EC50: concentration that gives half-maximal activation
In short: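 Recombinant human NAMPT (6 nM) with 2.5 mM ATP, […] PRPP and […] nicotinamide in HEPES pH 7.2 with DTT, CHAPS, NaCl, MgCl2; 60 min at ambient temperature. NMN derivatised with acetophenone/KOH/formic acid, fluorescence read at 355/460 nm. AC1.4 (40% above basal) and EC50 reported.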

Sequence of human NAMPT (P43490 whole entry): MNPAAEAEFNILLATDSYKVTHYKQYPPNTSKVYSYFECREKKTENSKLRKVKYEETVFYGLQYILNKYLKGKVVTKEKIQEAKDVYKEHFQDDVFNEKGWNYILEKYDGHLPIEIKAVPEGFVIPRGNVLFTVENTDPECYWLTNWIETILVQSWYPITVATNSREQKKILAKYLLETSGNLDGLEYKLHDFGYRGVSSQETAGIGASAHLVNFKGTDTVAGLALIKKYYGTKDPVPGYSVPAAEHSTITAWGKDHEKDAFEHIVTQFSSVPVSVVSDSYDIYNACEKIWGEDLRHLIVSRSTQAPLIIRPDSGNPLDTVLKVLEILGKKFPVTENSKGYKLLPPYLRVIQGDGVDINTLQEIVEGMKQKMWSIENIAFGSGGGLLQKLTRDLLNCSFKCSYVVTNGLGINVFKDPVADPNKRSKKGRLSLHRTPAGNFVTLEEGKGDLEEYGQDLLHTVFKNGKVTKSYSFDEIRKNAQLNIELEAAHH
Sequence of endogenous NAMPT (P43490 whole entry): as above

Compound | SY5Y (human) NAD Cell Dox AC0.3 (endogenous NAMPT) [µM] | EC50 (endogenous NAMPT) [nM] | AC1.4 Human (human NAMPT) [µM] | EC50 (human NAMPT) [nM]
Cc1nc(C(=O)N2CCNCC2c2cccc(F)c2)nc(NCCc2cn[nH]c2)c1C (centres unmarked) [Compound 24, (4-((2-(1H-pyrazol-4-yl)ethyl)amino)-5,6-dimethylpyrimidin-2-yl)(2-(3-fluorophenyl)piperazin-1-yl)methanone] | 2.49 | 2260 | 0.0955 | 770
Cc1nc(C(=O)N[C@H](C)c2ncccc2Cl)nc(NCCc2cn[nH]c2)c1C [Compound 30, (R)-4-((2-(1H-pyrazol-4-yl)ethyl)amino)-N-(1-(3-chloropyridin-2-yl)ethyl)-5,6-dimethylpyrimidine-2-carboxamide] | 0.88 | 1600 | 0.1725 | 741
Cc1nc(C(=O)NCC(C)(C)c2cccc(F)c2)nc(NCCc2cn[nH]c2)c1C [Compound 27, 4-((2-(1H-pyrazol-4-yl)ethyl)amino)-N-(2-(3-fluorophenyl)-2-methylpropyl)-5,6-dimethylpyrimidine-2-carboxamide] | 0.28 | 740 | 0.1305 | 1630
Cc1nc(C(=O)N2CCOC[C@H]2c2ccccc2)nc(NCCc2cn[nH]c2)c1C [Compound 16, (R)-(4-((2-(1H-pyrazol-4-yl)ethyl)amino)-5,6-dimethylpyrimidin-2-yl)(3-phenylmorpholino)methanone] | 0.41 | 330 | 0.0585 | 621
Cc1nc(C(=O)N[C@H](C)c2cccc(F)n2)nc(NCCc2cn[nH]c2)c1F [Compound 149, (R)-4-((2-(1H-pyrazol-4-yl)ethyl)amino)-5-fluoro-N-(1-(6-fluoropyridin-2-yl)ethyl)-6-methylpyrimidine-2-carboxamide] | 0.01 | – | 0.02 | –
Cc1nc(C(=O)N2CC(O)(c3ccccc3)C2)nc(NCCc2cn[nH]c2)c1C [Compound 22, (4-((2-(1H-pyrazol-4-yl)ethyl)amino)-5,6-dimethylpyrimidin-2-yl)(3-hydroxy-3-phenylazetidin-1-yl)methanone] | 7.15 | 8840 | 1.956 | 12800

Continued, values first:

SY5Y (human) NAD Cell Dox AC0.3 (endogenous NAMPT) [µM] | EC50 (endogenous NAMPT) [nM] | AC1.4 Human (human NAMPT) [µM] | EC50 (human NAMPT) [nM] | Compound
0.07 | 110 | 0.02 | 106 | Cc1nc(C(=O)N[C@H](C)c2cccc(F)n2)nc(NCCc2cn[nH]c2)c1C [Compound 4, (R)-4-((2-(1H-pyrazol-4-yl)ethyl)amino)-N-(1-(6-fluoropyridin-2-yl)ethyl)-5,6-dimethylpyrimidine-2-carboxamide]
0.13 | 280 | 0.0815 | 550 | Cc1nc(C(=O)NC(C)(C)c2ccccc2)nc(NCCc2cn[nH]c2)c1C [Compound 21, 4-((2-(1H-pyrazol-4-yl)ethyl)amino)-5,6-dimethyl-N-(2-phenylpropan-2-yl)pyrimidine-2-carboxamide]
0.19 | 190 | 0.029 | 326 | Cc1nc(C(=O)N2CCOCC2c2cccc(F)c2)nc(NCCc2cn[nH]c2)c1C (centres unmarked) [Compound 7, (4-((2-(1H-pyrazol-4-yl)ethyl)amino)-5,6-dimethylpyrimidin-2-yl)(3-(3-fluorophenyl)morpholino)methanone]
0.24 | 230 | 0.035 | 3740 | Cc1nc(C(=O)N2CCC[C@@H]2c2cccc(Cl)c2)nc(NCCc2cn[nH]c2)c1C [Compound 13, (R)-(4-((2-(1H-pyrazol-4-yl)ethyl)amino)-5,6-dimethylpyrimidin-2-yl)(2-(3-chlorophenyl)pyrrolidin-1-yl)methanone]
